Results taken from patent US10875875B2, “Propionic acid derivatives and methods of use thereof” (Aviara Pharmaceuticals, Inc., priority 2017, dated 2020).

Legend:
α4β7 = biological target: T1, α4β7 (Homo sapiens, UniProt P13612+P26010); assay: α4β7 integrin inhibition, IC50; assay type: binding
T1 sequence (P13612 34-1032): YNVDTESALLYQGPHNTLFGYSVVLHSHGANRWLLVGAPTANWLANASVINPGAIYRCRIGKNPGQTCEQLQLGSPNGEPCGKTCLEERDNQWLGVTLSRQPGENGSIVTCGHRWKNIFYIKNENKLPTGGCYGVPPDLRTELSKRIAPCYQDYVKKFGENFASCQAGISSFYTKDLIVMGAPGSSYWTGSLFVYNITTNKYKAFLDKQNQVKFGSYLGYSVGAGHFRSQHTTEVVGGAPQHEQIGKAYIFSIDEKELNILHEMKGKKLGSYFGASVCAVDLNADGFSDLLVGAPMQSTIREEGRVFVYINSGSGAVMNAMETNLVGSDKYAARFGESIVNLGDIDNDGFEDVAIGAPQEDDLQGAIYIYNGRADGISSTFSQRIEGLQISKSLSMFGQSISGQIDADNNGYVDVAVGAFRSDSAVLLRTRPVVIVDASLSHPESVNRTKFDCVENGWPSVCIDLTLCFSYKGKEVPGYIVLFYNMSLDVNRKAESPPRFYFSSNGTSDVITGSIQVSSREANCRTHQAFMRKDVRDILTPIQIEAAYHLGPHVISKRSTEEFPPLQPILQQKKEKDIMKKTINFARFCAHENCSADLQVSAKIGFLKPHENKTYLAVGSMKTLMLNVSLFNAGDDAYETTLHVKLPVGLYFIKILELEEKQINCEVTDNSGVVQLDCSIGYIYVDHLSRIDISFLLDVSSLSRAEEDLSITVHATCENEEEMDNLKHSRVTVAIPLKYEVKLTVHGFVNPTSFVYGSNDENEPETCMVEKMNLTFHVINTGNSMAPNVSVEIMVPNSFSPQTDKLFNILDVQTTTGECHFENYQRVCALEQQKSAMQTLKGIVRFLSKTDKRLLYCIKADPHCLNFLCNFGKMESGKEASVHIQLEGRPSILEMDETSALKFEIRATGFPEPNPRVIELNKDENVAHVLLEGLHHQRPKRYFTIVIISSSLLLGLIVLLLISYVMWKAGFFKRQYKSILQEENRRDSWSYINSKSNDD
T1 sequence (P26010 20-798): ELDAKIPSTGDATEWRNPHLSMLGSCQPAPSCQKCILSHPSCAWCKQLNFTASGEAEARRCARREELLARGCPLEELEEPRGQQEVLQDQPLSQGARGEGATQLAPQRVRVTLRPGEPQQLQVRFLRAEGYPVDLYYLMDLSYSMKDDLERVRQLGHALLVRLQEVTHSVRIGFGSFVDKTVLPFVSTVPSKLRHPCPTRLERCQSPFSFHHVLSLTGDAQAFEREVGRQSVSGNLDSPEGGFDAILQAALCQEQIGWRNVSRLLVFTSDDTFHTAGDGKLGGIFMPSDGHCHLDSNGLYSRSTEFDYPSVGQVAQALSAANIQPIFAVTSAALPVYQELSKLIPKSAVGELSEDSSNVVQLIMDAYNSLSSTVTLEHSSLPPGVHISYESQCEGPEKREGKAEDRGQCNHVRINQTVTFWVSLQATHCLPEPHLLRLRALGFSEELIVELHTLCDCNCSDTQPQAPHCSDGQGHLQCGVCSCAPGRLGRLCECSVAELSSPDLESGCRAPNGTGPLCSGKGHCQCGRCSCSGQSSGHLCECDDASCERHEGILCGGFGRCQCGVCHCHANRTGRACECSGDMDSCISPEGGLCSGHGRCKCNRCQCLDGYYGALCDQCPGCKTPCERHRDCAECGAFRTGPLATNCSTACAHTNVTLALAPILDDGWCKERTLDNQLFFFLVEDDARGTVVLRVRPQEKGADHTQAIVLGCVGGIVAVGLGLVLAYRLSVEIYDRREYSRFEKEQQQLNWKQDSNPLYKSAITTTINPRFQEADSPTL

α4β1 = α4β1 (Homo sapiens, UniProt P05556+P13612); assay: α4β1 integrin inhibition, IC50; assay type: binding; conditions: read-out: α4β1 IC50
Sequence of α4β1 (P05556 21-798, one chain of several): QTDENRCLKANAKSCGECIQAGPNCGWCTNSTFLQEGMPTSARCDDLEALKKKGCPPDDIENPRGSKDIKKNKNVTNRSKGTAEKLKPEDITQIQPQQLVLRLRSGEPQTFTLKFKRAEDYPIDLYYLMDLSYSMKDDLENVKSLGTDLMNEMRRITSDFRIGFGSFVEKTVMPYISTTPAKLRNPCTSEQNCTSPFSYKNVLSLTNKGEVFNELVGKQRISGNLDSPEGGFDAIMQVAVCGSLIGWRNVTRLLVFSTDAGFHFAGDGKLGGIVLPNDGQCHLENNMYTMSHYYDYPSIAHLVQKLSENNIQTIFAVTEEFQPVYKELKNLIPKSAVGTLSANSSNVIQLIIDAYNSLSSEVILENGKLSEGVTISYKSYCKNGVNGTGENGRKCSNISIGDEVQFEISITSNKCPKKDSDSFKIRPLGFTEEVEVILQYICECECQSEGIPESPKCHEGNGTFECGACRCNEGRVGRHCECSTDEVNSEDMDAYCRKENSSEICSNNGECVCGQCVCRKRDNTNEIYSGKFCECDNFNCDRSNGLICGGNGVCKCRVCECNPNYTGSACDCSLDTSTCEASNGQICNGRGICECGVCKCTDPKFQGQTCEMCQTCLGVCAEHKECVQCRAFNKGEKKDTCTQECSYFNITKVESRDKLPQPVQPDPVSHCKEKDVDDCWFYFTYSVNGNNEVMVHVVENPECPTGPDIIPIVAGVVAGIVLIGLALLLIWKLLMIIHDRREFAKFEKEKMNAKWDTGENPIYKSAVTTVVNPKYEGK

Compound | IC50 (α4β7) [µM] | IC50 (α4β1) [µM]
Cc1cccc(C)c1-c1ccc(F)c([C@H](CC(=O)O)NC(=O)Nc2c(O)ccn(C)c2=O)c1 [1-590, sodium (S)-3-(4-fluoro-2′,6′-dimethylbiphenyl-3-yl)-3-(3-(1-methyl-4-oxido-2-oxo-1,2-dihydropyridin-3-yl)ureido)propanoate] | < 0.02 | < 0.02
O=C(O)C[C@H](NC(=O)Nc1c(O)cc2n(c1=O)CCC2)c1cccc(-c2ccc(F)cc2F)c1 [1-629, sodium (S)-3-(2′,4′-difluorobiphenyl-3-yl)-3-(3-(7-oxido-5-oxo-1,2,3,5-tetrahydroindolizin-6-yl)ureido)propanoate] | > 0.2 | < 0.02
Cc1cccc(C)c1-c1cc(F)cc([C@H](CC(=O)O)NC(=O)Nc2c(O)cc(C)n(C)c2=O)c1 [1-642, sodium (S)-3-(3-(1,6-dimethyl-4-oxido-2-oxo-1,2-dihydropyridin-3-yl)ureido)-3-(5-fluoro-2′,6′-dimethylbiphenyl-3-yl)propanoate] | < 0.02 | < 0.02
